# Test results published in US20240293507A1, “Methods for Enhancing Immune Checkpoint Inhibitor Therapy” (The University of Southern California, priority 2021, published 2024).
# No end group written: not given here.
# Tests used:
# [1] = tested on: myeloid-derived suppressor cells (MDSCs) in MC38 colon adenocarcinoma tumors; experiment: MDSC infiltration into tumor microenvironment, MC38 tumors, FACS; type: in vivo, C57BL/6 mice; conditions: 4 doses cyclic peptide 0.1 mg/kg alone; tumors harvested day 13
# Experimental: C57BL/6 mice were implanted subcutaneously with 5×10^6 MC38 colon adenocarcinoma cells, and subsequently treated with 4 doses of the indicated cyclic peptide (0.1 mg/kg), 4 doses of the indicated a cyclic peptide with 3 doses of an anti-PD-1 monoclonal antibody (1 mg/kg), or saline (control). Tumors were harvested at day 13 and the percent of myeloid-derived suppressor cells (MDSCs) was quantified by FACS.
# [2] = tested on: MC38 mouse colon adenocarcinoma cells; experiment: MC38 colon adenocarcinoma challenge, survival and rechallenge (FIG. 6-8); type: in vivo, mice; conditions: peptide in combination with anti-PD-1 monoclonal antibody
# Excerpt: Enhancement was also found of the efficacy of anti-PD-1 therapy in a mouse colon cancer model by coadministration of a cyclic peptide as described herein. A typical protocol for identifying or characterizing effective analogs of naturally occurring cyclic peptides or effective naturally occurring cyclic peptides is shown in FIG. 6.
# Mice were challenged with MC38 mouse colon adenocarcinoma cells and treated with peptide 1 (SEQ ID NO. 1), peptide 2 (SEQ ID NO. 2), or peptide 3 (SEQ ID NO. 3) alone, peptide 1 (SEQ ID NO. 1), peptide 2 (SEQ ID NO. 2), or peptide 3 (SEQ ID NO. 3) in combination with an anti-PD-1 monoclonal antibody, or with the anti-PD-1 monoclonal antibody alone.
# Such combination therapy provided an effect that exceeds the summation of effects provided by anti-PD1 or the cyclic peptide as monotherapies. […] Use of cyclic peptides in combination anti-PD-1 ICI also effectively immunized mice to rechallenge with MC38 colon cancer cells. As shown in the upper panel of FIG. 8, MC38 cells formed tumors in naïve control mice.
substance,measurement,setting,value
"peptide 3: cyclic peptide, θ-defensin analog, sequence CICRRRFCLCRRGA (not fully specified (bridges); also: cyclic, kind not given here)",percentage of MDSCs within the tumor microenvironment,[1],significant activity in reducing the percentage of MDSCs
same,survival,[2],potentiated the effect of the anti-PD-1 monoclonal antibody
